# Results reported in patent US20190119282A1, “IMIDAZOPYRIDAZINES USEFUL AS INHIBITORS OF THE PAR-2 SIGNALING PATHWAY” (Vertex Pharmaceuticals Incorporated, priority 2013, published 2019).
# What was measured:
# [1] = test system: Thrombin-stimulated Ca2+ response in HT-29 cells; experiment: Ca FLIPR TETRA assay, ANTAGONIST mode, stimulation with 1 U/mL Thrombin; assay type: cell-based, human; conditions: Homo sapiens, HT-29 cells
# Procedure, shortened: (§1)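 Inhibition of activator-evoked Ca2+ flux was recorded on FLIPR Tetra in HT-29 cells after 30 min compound exposure at r.t. A prior read checked whether compounds alone triggered Ca2+ release.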
# [2] = target: T1, PAR2 (HT-29 cells, trypsin activation) (Homo sapiens, UniProt P55085); experiment: Ca FLIPR TETRA assay, ANTAGONIST mode, stimulation with 3.1 U/mL trypsin; assay type: cell-based; conditions: HT-29 cells
# T1 construct: host or cells: HT-29 cells
# T1 sequence (P55085 26-397): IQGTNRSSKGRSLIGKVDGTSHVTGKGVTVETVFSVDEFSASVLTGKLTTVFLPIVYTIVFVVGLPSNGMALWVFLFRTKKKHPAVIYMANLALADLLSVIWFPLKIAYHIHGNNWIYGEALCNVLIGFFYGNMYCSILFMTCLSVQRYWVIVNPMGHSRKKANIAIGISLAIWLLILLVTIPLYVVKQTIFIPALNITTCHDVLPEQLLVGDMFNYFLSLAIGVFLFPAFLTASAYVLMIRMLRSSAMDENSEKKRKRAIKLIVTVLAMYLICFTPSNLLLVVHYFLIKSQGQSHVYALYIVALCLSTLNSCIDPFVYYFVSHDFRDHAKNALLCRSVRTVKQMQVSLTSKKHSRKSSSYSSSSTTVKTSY
# Procedure, shortened: as §1
# [3] = target: T2, PAR2 (HT-29 cells, SLIGKV activation) (Homo sapiens, UniProt P55085); experiment: Ca FLIPR TETRA assay, ANTAGONIST mode, stimulation with 8 μM SLIGKV; assay type: cell-based; conditions: HT-29 cells
# T2 construct: host or cells: HT-29 cells
# T2 sequence (P55085 26-397): T1 sequence (P55085 26-397)
# Procedure, shortened: as §1
# [4] = test system: UTP-stimulated Ca2+ response in HT-29 cells; experiment: Ca FLIPR TETRA assay, ANTAGONIST mode, stimulation with 0.6 μM UTP; assay type: cell-based, human; conditions: Homo sapiens, HT-29 cells
# Procedure, shortened: as §1
# [5] = antagonist mode, stimulation with 1 U/mL Thrombin
# [6] = antagonist mode, stimulation with 3.1 U/mL trypsin
# [7] = antagonist mode, stimulation with 8 μM SLIGKV
# [8] = antagonist mode, stimulation with 0.6 μM UTP
# [9] = stimulation with 1 U/mL Thrombin
# [10] = stimulation with 3.1 U/mL trypsin
"IC50 [1, 5] [nM]","IC50 [2, 6] [nM]","IC50 [3, 7] [nM]","IC50 [4, 8] [nM]",Structure (SMILES),further results
475,25.5,15,390,CC(C)(C)c1cc(-c2ccccc2F)nn2cc(C(=O)N3CCNC(=O)C3(C)C)nc12 [Compound I-473],–
–,–,–,–,CC1(C)C(=O)NCCN1C(=O)c1cn2nc(-c3ccc(F)cc3)cc(-c3ccncc3)c2n1 [Compound I-569],"IC50 ([1]; antagonist mode, 1 U/mL Thrombin): > 1000 nM; IC50 ([2]; antagonist mode, 3.1 U/mL trypsin): 640 nM; IC50 ([3]; antagonist mode, 8 μM SLIGKV): 395 nM; IC50 ([4]; antagonist mode, 0.6 μM UTP): > 1000 nM"
10300,7.1,3.8,13700,Cc1n[nH]c(C(=O)N2CCN(C(=O)c3cn4nc(-c5ccc(F)cc5)cc(C(C)C)c4n3)C(C)(C)C2)n1 [Compound I-475],–
–,–,–,–,CCS(=O)(=O)N1CCN(C(=O)c2cn3nc(-c4ccc(F)cc4)cc(C(F)(F)F)c3n2)CC1 [Compound I-57],"IC50 [1, 9]: > 50000 nM; IC50 [2, 10]: 48000 nM; IC50 ([3]; stimulation with 8 μM SLIGKV): 590 nM; IC50 ([4]; stimulation with 0.6 μM UTP): > 50000 nM"
> 1000,4.1,6.8,> 1000,Cc1nc[nH]c1C(=O)N1CCN(C(=O)c2cn3nc(-c4ccc(F)cc4)cc(C(C)(C)C)c3n2)C(C)(C)C1 [Compound I-311],–
> 1000,49.5,24,> 1000,CC(C)c1cc(-c2ccc(Cl)cc2)nn2cc(C(=O)N3CCN(C(=O)[C@H]4C[C@@H](C(=O)O)C4)CC3(C)C)nc12 [Compound I-553],–
> 1000,16.6,16.6,> 1000,C[C@@H]1C[C@H](c2cc(-c3ccc(F)cc3)nn3cc(C(=O)N4CCN(C(=O)OC(C)(C)C)CC4(C)C)nc23)C[C@H](C)O1 [Compound I-209],–
> 1000,4.3,3.4,> 1000,Cc1nc(C(=O)N2CCN(C(=O)c3cn4nc(-c5ccc(C(F)(F)F)cc5)cc(C(C)C)c4n3)C(C)(C)C2)n[nH]1 [Compound I-413],–
> 1000,11.5,13.3,> 1000,Cc1ccc(-c2cc(C(C)C)c3nc(C(=O)N4CCN(C(=O)c5nnc(C)o5)CC4(C)C)cn3n2)cc1 [Compound I-332],–
–,–,–,–,O=C(c1cn2nc(-c3ccc(F)cc3)cc(C(F)(F)F)c2n1)N1CCN(CCn2ccnc2)CC1 [Compound I-56],"IC50 [1, 9]: > 50000 nM; IC50 [2, 10]: > 50000 nM; IC50 ([3]; stimulation with 8 μM SLIGKV): 23000 nM; IC50 ([4]; stimulation with 0.6 μM UTP): > 50000 nM"
650,2.6,1.8,> 1000,CC(C)(C)c1cc(-c2ccc(F)cc2)nn2cc(C(=O)N3CCN(C(=O)c4ncccn4)CC3(C)C)nc12 [Compound I-285],–
> 1000,1.6,1.5,> 1000,Cc1c[nH]c(C(=O)N2CCN(C(=O)c3cn4nc(-c5ccc(F)cc5)cc(C(C)(C)C)c4n3)C(C)(C)C2)n1 [Compound I-340],–
> 1000,8.1,6.5,> 1000,Cc1ccc(-c2cc(C(C)C)c3nc(C(=O)N4CCN(C(=O)c5ncccn5)CC4(C)C)cn3n2)cc1F [Compound I-373],–
830,1.7,1.7,> 1000,Cc1cccc(-c2cc(C(C)(C)C)c3nc(C(=O)N4CCN(C(=O)C5CC(C)(O)C5)CC4(C)C)cn3n2)c1 (stereo not shown) [Compound I-409],–
> 1000,2.2,1.7,> 1000,CC(C)(C)c1cc(-c2ccc(F)cc2)nn2cc(C(=O)N3CCN(C(=O)C(C)(N)C(F)(F)F)CC3(C)C)nc12 (stereo not shown) [Compound I-318],–
–,–,–,–,COC(=O)[C@@H]1CCN(C(=O)c2cn3nc(-c4ccc(F)cc4)cc(C(F)(F)F)c3n2)C[C@@H]1C [Compound I-64],"IC50 [1, 9]: 5700 nM; IC50 [2, 10]: 220 nM; IC50 ([3]; stimulation with 8 μM SLIGKV): 110 nM; IC50 ([4]; stimulation with 0.6 μM UTP): 42000 nM"
> 1000,39.8,24.8,> 1000,Cc1ccc(-c2cc(C(C)C)c3nc(C(=O)N4CCN(C(=O)C(C)(C)O)CC4(C)C)cn3n2)cc1 [Compound I-218],–
> 1000,18.6,8.2,> 1000,CC(C)c1cc(-c2ccc(F)cc2)nn2cc(C(=O)N3CCN(C(=O)c4ccncn4)CC3(C)C)nc12 [Compound I-236],–
> 1000,2.9,2.4,> 1000,CC(C)(C)c1cc(-c2ccc(F)cc2)nn2cc(C(=O)N3CCN(C(=O)C4CCCO4)CC3(C)C)nc12 (stereo not shown) [Compound I-200],–
